Molecular target: EP2 (Homo sapiens, UniProt P43116)
Assay: EP2 cAMP
Type: cell-based
Excerpt: U.S. patent application Ser. No. 11/553,143, filed on Oct. 26, 2006, incorporated by reference herein, describes the methods used to obtain the in vitro data in the table below.

Sequence of EP2 (P43116 whole entry): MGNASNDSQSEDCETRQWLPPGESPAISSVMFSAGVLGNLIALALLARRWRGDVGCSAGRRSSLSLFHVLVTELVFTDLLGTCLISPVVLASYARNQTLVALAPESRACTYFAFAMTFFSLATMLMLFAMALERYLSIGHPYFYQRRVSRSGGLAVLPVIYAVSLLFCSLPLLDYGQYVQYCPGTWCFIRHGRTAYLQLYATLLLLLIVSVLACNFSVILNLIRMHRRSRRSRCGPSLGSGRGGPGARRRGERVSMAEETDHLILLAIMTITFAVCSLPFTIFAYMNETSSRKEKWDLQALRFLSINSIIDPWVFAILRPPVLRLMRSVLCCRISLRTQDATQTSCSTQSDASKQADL

Row | EC50 | Compound
1 | 515 nM | CCCCCC(O)c1ccc(N2C(=O)CSC2CCCc2ccc(C(=O)O)s2)cc1 (centres unmarked)
2 | 0.06 nM | CCCCCC(O)c1ccc(N2C(=O)COC2CCCc2ccc(C(=O)O)s2)cc1 (centres unmarked)

From US8003678B2, “Therapeutic substituted thiazolidinones, oxazolidinones, and related compounds” (Allergan, Inc., priority 2006, dated 2011)
